Measurements from the NIST ThermoML archive (doi:10.1016/j.jct.2003.08.018).
± gives the expanded uncertainty stated by the source.

Assay: activity coefficient (dimensionless); of the first substance listed, at infinite dilution; xn = mol fraction of the nth substance listed
Details: Liquid, Chromatography, x1 = 0

Which results are given for `C=CCC` [1-butene] + CCCO?
activity coefficient (260.03 K): 4.13 ± 0.18; activity coefficient (280.04 K): 4.12 ± 0.18; activity coefficient (299.98 K): 4.11 ± 0.18; activity coefficient (320.03 K): 4.05 ± 0.18; activity coefficient (340 K): 4.01 ± 0.18

For `C=CC` [propene] + CCCO, which activity coefficient (259.92 K) is on record?
The activity coefficient was 3.58 ± 0.16.

What about the activity coefficient (279.94 K) of the same molecule?
Its activity coefficient is 3.61 ± 0.16.

And the activity coefficient (300.03 K)?
Its activity coefficient is 3.66 ± 0.16.

And the activity coefficient (320.02 K)?
Its activity coefficient is 3.64 ± 0.16.

And the activity coefficient (340.1 K)?
Its activity coefficient is 3.64 ± 0.16.

Which results are given for `CCCC` [butane] + CCCO?
activity coefficient (260.05 K): 5.17 ± 0.23; activity coefficient (280.05 K): 5.06 ± 0.22; activity coefficient (299.99 K): 5.03 ± 0.22; activity coefficient (320.05 K): 4.88 ± 0.22

Which activity coefficient (259.98 K) does the source give for `CCC` [propane] + CCCO here?
The activity coefficient was 4.6 ± 0.2.

What about the activity coefficient (279.96 K) of the same molecule?
The activity coefficient was 4.62 ± 0.2.

And the activity coefficient (299.96 K)?
Its activity coefficient is 4.64 ± 0.2.

And the activity coefficient (320.03 K)?
The activity coefficient was 4.61 ± 0.2.

And the activity coefficient (339.95 K)?
The activity coefficient was 4.56 ± 0.2.

Which activity coefficient (259.91 K) does the source give for `C=C(C)C` [2-methylpropene] + CCCO here?
The activity coefficient was 4.09 ± 0.18.

And the activity coefficient (279.95 K)?
Its activity coefficient is 4.08 ± 0.18.

And the activity coefficient (299.94 K)?
Its activity coefficient is 4.04 ± 0.18.

And the activity coefficient (320.06 K)?
The activity coefficient was 4 ± 0.18.

And the activity coefficient (340.16 K)?
The activity coefficient was 3.94 ± 0.17.

With `C=CC=C` [1,3-butadiene] + CCCO as the molecule, how does the activity coefficient (260.02 K) read?
The activity coefficient was 4.2 ± 0.19.

And the activity coefficient (280.03 K)?
The activity coefficient was 4.15 ± 0.18.

What about the activity coefficient (299.99 K) of the same molecule?
Its activity coefficient is 4.1 ± 0.18.

And the activity coefficient (320.09 K)?
Its activity coefficient is 4.06 ± 0.18.

And the activity coefficient (340.06 K)?
Its activity coefficient is 3.98 ± 0.18.

With `CC(C)C` [2-methylpropane] + CCCO as the molecule, how does the activity coefficient (259.98 K) read?
Its activity coefficient is 5.48 ± 0.24.

And the activity coefficient (279.94 K)?
Its activity coefficient is 5.37 ± 0.24.

What about the activity coefficient (300.16 K) of the same molecule?
The activity coefficient was 5.24 ± 0.23.

What about the activity coefficient (320 K) of the same molecule?
The activity coefficient was 5.14 ± 0.23.

What about the activity coefficient (339.92 K) of the same molecule?
Its activity coefficient is 5.05 ± 0.22.

Which results are given for `C/C=C/C` [(E)-2-butene] + CCCO?
activity coefficient (260.02 K): 4.2 ± 0.19; activity coefficient (280.03 K): 4.15 ± 0.18; activity coefficient (299.99 K): 4.1 ± 0.18; activity coefficient (320.09 K): 4.06 ± 0.18; activity coefficient (340.06 K): 3.98 ± 0.18
